Data as given in patent publication US6706664B1, “Benzoxazole compounds, process for the preparation thereof and herbicides” (UBE Industries, Ltd., priority 1999, dated 2004).

Key:
Parameters in all cases: key: 0: normal development; 1: Less damaged; 2: Slightly damaged; 3: Moderately damaged; 4: Severely damaged; 5: All killed
soybean [1] = experiment: Foliar spread test for upland field; format: in vivo; conditions: foliar spray 500 ppm, 3 weeks, rank vs non-treated
Method in brief: (§1)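 Post-emergence foliar spray, 500 ppm (wettable powder in water + 0.5% surfactant), on ~2-week-old plants grown in volcanic ash soil; glasshouse, avg 25° C, 3 wk; visual damage score 0–5.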

sugar beat [2] = experiment: Foliar spread test for upland field; format: in vivo; conditions: foliar spray 500 ppm, 3 weeks, rank vs non-treated
Method in brief: as §1

cotton [3] = experiment: Foliar spread test for upland field; format: in vivo; conditions: foliar spray 500 ppm, 3 weeks, rank vs non-treated
Method in brief: as §1

corn [4] = experiment: Foliar spread test for upland field; format: in vivo; conditions: foliar spray 500 ppm, 3 weeks, rank vs non-treated
Method in brief: as §1

solgum [5] = experiment: Foliar spread test for upland field; format: in vivo; conditions: foliar spray 500 ppm, 3 weeks, rank vs non-treated
Method in brief: as §1

wheat [6] = experiment: Foliar spread test for upland field; format: in vivo; conditions: foliar spray 500 ppm, 3 weeks, rank vs non-treated
Method in brief: as §1

blackgrass [7] = experiment: Foliar spread test for upland field; format: in vivo, Alopecurus aegualis; conditions: foliar spray 500 ppm, 3 weeks, rank vs non-treated
Description: (§2) (0: normal development, 1: Less damaged, 2: Slightly damaged, 3: Moderately damaged, 4: Severely damaged, 5: All killed).
(§3) Wagner pots, each having an area of 1/5000 are, were packed with volcanic ash soil and then each seed of corn, soybean, cotton, wheat, solgum, sugar beat, Large crabgrass, barnyardgrass, green foxtail, blackgrass, annual bluegrass, common lambsquartes, livid amaranth, velvetleaf and morning glory was planted, covered with soil and grown in a glass house at an average temperature of […] for about 2 weeks.
(§4) Each wettable powder of the desired compounds (I) shown in Table 1 prepared in accordance with Example 2 was diluted to 500 ppm with water containing a surfactant (0.5%) and then uniformly sprayed on the above respective plants.
(§5) After these plants were controlled in a glass house at an average temperature of 25° C. for 3 weeks, the herbicidal effects thereof were investigated.
(§6) The herbicidal effects were evaluated according to the evaluation method described in the above (1).

morning glory = experiment: Foliar spread test for upland field; format: in vivo, Ipomoea spps.; conditions: foliar spray 500 ppm, 3 weeks, rank vs non-treated
Method in brief: (§7)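 Seeds are planted in pots of volcanic ash soil and grown roughly 2 weeks under glass. Foliage then receives a uniform spray of compound at 500 ppm in water with 0.5% surfactant. Herbicidal damage is rated 0–5 after 3 weeks at an average 25° C.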

common lambsquartes [8] = experiment: Soil treatment test for upland field; format: in vivo, Chenopodium album; conditions: 500 g/ha, glass house 25° C., 3 weeks
Method in brief: (§8)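 Pre-emergence test: seeds sown in Ube alluvial soil in Wagner pots, soil surface sprayed with wettable powder in water with 0.05% surfactant at 500 g/ha. Plants kept in a glasshouse at average 25 °C for 3 weeks, then damage scored 0 (normal) to 5 (all killed).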

velvetleaf [9] = experiment: Soil treatment test for upland field; format: in vivo, Abutilon theophrasti; conditions: 500 g/ha, glass house 25° C., 3 weeks
Method in brief: as §8

soybean [10] = experiment: Soil treatment test for upland field; format: in vivo; conditions: 500 g/ha, glass house 25° C., 3 weeks
Method in brief: as §8

sugar beat [11] = experiment: Soil treatment test for upland field; format: in vivo; conditions: 500 g/ha, glass house 25° C., 3 weeks
Method in brief: as §8

cotton [12] = experiment: Soil treatment test for upland field; format: in vivo; conditions: 500 g/ha, glass house 25° C., 3 weeks
Method in brief: as §8

corn [13] = experiment: Soil treatment test for upland field; format: in vivo; conditions: 500 g/ha, glass house 25° C., 3 weeks
Method in brief: as §8

solgum [14] = experiment: Soil treatment test for upland field; format: in vivo; conditions: 500 g/ha, glass house 25° C., 3 weeks
Method in brief: as §8

wheat [15] = experiment: Soil treatment test for upland field; format: in vivo; conditions: 500 g/ha, glass house 25° C., 3 weeks
Method in brief: as §8

green foxtail [16] = experiment: Soil treatment test for upland field; format: in vivo, Setaria viridis; conditions: 500 g/ha, glass house 25° C., 3 weeks
Method in brief: as §8

annual bluegrass [17] = experiment: Foliar spread test for upland field; format: in vivo, Poa annua; conditions: foliar spray 500 ppm, 3 weeks, rank vs non-treated
Description: as §2, §3, §4, §5, §6

annual bluegrass [18] = experiment: Soil treatment test for upland field; format: in vivo, Poa annua; conditions: 500 g/ha, glass house 25° C., 3 weeks
Method in brief: as §8

Large crabgrass [19] = experiment: Foliar spread test for upland field; format: in vivo, Digitaria adscendens; conditions: foliar spray 500 ppm, 3 weeks, rank vs non-treated
Method in brief: as §7

barnyardgrass [20] = experiment: Foliar spread test for upland field; format: in vivo, Echinochloa crusgalli; conditions: foliar spray 500 ppm, 3 weeks, rank vs non-treated
Description: as §2, §3, §4, §5, §6

blackgrass [21] = experiment: Soil treatment test for upland field; format: in vivo, Alopecurus aegualis; conditions: 500 g/ha, glass house 25° C., 3 weeks
Method in brief: as §8

livid amaranth [22] = experiment: Soil treatment test for upland field; format: in vivo, Amaranthus lividus; conditions: 500 g/ha, glass house 25° C., 3 weeks
Method in brief: as §8

green foxtail [23] = experiment: Foliar spread test for upland field; format: in vivo, Setaria viridis; conditions: foliar spray 500 ppm, 3 weeks, rank vs non-treated
Method in brief: as §7

livid amaranth [24] = experiment: Foliar spread test for upland field; format: in vivo, Amaranthus lividus; conditions: foliar spray 500 ppm, 3 weeks, rank vs non-treated
Method in brief: as §7

common lambsquartes [25] = experiment: Foliar spread test for upland field; format: in vivo, Chenopodium album; conditions: foliar spray 500 ppm, 3 weeks, rank vs non-treated
Method in brief: as §7

barnyardgrass [26] = experiment: Soil treatment test for upland field; format: in vivo, Echinochloa crusgalli; conditions: 500 g/ha, glass house 25° C., 3 weeks
Method in brief: as §8

velvetleaf [27] = experiment: Foliar spread test for upland field; format: in vivo, Abutilon theophrasti; conditions: foliar spray 500 ppm, 3 weeks, rank vs non-treated
Method in brief: as §7

Large crabgrass [28] = experiment: Soil treatment test for upland field; format: in vivo, Digitaria adscendens; conditions: 500 g/ha, glass house 25° C., 3 weeks
Method in brief: as §8

With `CCCC(Oc1ccc(F)c(C(F)(F)F)c1)c1nc2ccc(C(F)(F)F)cc2o1` (stereo not shown) [Compound 101] the “Effects Soybean” value (soybean [1]) was 3, the “Effects Sugar beat” value (sugar beat [2]) was 2 and the “Effects Cotton” value (cotton [3]) was 2. For the same compound, the “Effects Corn” value (corn [4]) was 1, the “Effects Solgum” value (solgum [5]) was 1 and the “Effects Wheat” value (wheat [6]) was 1. The “Effects Blackgrass” value (blackgrass [7]) was 1, the “Effects Morning glory” value (morning glory) was 3 and the “Effects Common lambsquarters” value (common lambsquartes [8]) was 4. For the same compound, the “Effects Velvetleaf” value (velvetleaf [9]) was 2, the “Effects Soybean” value (soybean [10]) was 0 and the “Effects Sugar beat” value (sugar beat [11]) was 2. The “Effects Cotton” value (cotton [12]) was 0, the “Effects Corn” value (corn [13]) was 0 and the “Effects Solgum” value (solgum [14]) was 1. The “Effects Wheat” value (wheat [15]) was 0, the “Effects Green foxtail” value (green foxtail [16]) was 5 and the “Effects Annual bluegrass” value (annual bluegrass [17]) was 1. The “Effects Annual bluegrass” value (annual bluegrass [18]) was 5, the “Effects Large crabgrass” value (Large crabgrass [19]) was 2 and the “Effects Barnyardgrass” value (barnyardgrass [20]) was 1. For the same compound, the “Effects Blackgrass” value (blackgrass [21]) was 3, the “Effects Livid amaranth” value (livid amaranth [22]) was 5 and the “Effects Green foxtail” value (green foxtail [23]) was 2. For the same compound, the “Effects Livid amaranth” value (livid amaranth [24]) was 4, the “Effects Common lambsquarters” value (common lambsquartes [25]) was 4 and the “Effects Barnyardgrass” value (barnyardgrass [26]) was 3. For the same compound, the “Effects Velvetleaf” value (velvetleaf [27]) was 3 and the “Effects Large crabgrass” value (Large crabgrass [28]) was 5.
For `CCC(Oc1ccc(Cl)c(C(F)(F)F)c1)c1nc2cc(Cl)ccc2o1` (stereo not shown) [Compound 438], the “Effects Soybean” value (soybean [1]) was 4, the “Effects Sugar beat” value (sugar beat [2]) was 5 and the “Effects Cotton” value (cotton [3]) was 3. The “Effects Corn” value (corn [4]) was 2, the “Effects Solgum” value (solgum [5]) was 2 and the “Effects Wheat” value (wheat [6]) was 2. For the same compound, the “Effects Blackgrass” value (blackgrass [7]) was 2, the “Effects Morning glory” value (morning glory) was 4 and the “Effects Annual bluegrass” value (annual bluegrass [17]) was 3. The “Effects Large crabgrass” value (Large crabgrass [19]) was 3, the “Effects Barnyardgrass” value (barnyardgrass [20]) was 1 and the “Effects Green foxtail” value (green foxtail [23]) was 3. The “Effects Livid amaranth” value (livid amaranth [24]) was 5, the “Effects Common lambsquarters” value (common lambsquartes [25]) was 3 and the “Effects Velvetleaf” value (velvetleaf [27]) was 3.
With `CCC(Oc1cccc(C(F)(F)F)c1)c1nc2cc([N+](=O)[O-])ccc2o1` (stereo not shown) [Compound 178] the “Effects Soybean” value (soybean [1]) was 3, the “Effects Sugar beat” value (sugar beat [2]) was 3 and the “Effects Cotton” value (cotton [3]) was 3. The “Effects Corn” value (corn [4]) was 2, the “Effects Solgum” value (solgum [5]) was 2 and the “Effects Wheat” value (wheat [6]) was 2. For the same compound, the “Effects Blackgrass” value (blackgrass [7]) was 2, the “Effects Common lambsquarters” value (common lambsquartes [8]) was 4 and the “Effects Velvetleaf” value (velvetleaf [9]) was 1. The “Effects Soybean” value (soybean [10]) was 0, the “Effects Sugar beat” value (sugar beat [11]) was 1 and the “Effects Cotton” value (cotton [12]) was 0. For the same compound, the “Effects Corn” value (corn [13]) was 0, the “Effects Solgum” value (solgum [14]) was 0 and the “Effects Wheat” value (wheat [15]) was 0. The “Effects Green foxtail” value (green foxtail [16]) was 5, the “Effects Annual bluegrass” value (annual bluegrass [17]) was 3 and the “Effects Annual bluegrass” value (annual bluegrass [18]) was 5. For the same compound, the “Effects Large crabgrass” value (Large crabgrass [19]) was 3, the “Effects Barnyardgrass” value (barnyardgrass [20]) was 2 and the “Effects Blackgrass” value (blackgrass [21]) was 3. For the same compound, the “Effects Livid amaranth” value (livid amaranth [22]) was 5, the “Effects Green foxtail” value (green foxtail [23]) was 2 and the “Effects Livid amaranth” value (livid amaranth [24]) was 4. The “Effects Common lambsquarters” value (common lambsquartes [25]) was 4, the “Effects Barnyardgrass” value (barnyardgrass [26]) was 4 and the “Effects Velvetleaf” value (velvetleaf [27]) was 3. For the same compound, the “Effects Large crabgrass” value (Large crabgrass [28]) was 5.
For `CCC(Oc1ccc(F)c(C(F)(F)F)c1)c1nc2cc(I)ccc2o1` (stereo not shown) [Compound 171], the “Effects Soybean” value (soybean [1]) was 3, the “Effects Sugar beat” value (sugar beat [2]) was 3 and the “Effects Cotton” value (cotton [3]) was 4. For the same compound, the “Effects Corn” value (corn [4]) was 2, the “Effects Solgum” value (solgum [5]) was 2 and the “Effects Wheat” value (wheat [6]) was 2. For the same compound, the “Effects Blackgrass” value (blackgrass [7]) was 1, the “Effects Morning glory” value (morning glory) was 5 and the “Effects Common lambsquarters” value (common lambsquartes [8]) was 2. For the same compound, the “Effects Soybean” value (soybean [10]) was 0, the “Effects Sugar beat” value (sugar beat [11]) was 5 and the “Effects Cotton” value (cotton [12]) was 0. The “Effects Corn” value (corn [13]) was 0, the “Effects Solgum” value (solgum [14]) was 1 and the “Effects Wheat” value (wheat [15]) was 1. The “Effects Green foxtail” value (green foxtail [16]) was 5, the “Effects Annual bluegrass” value (annual bluegrass [17]) was 3 and the “Effects Annual bluegrass” value (annual bluegrass [18]) was 5. The “Effects Large crabgrass” value (Large crabgrass [19]) was 3, the “Effects Barnyardgrass” value (barnyardgrass [20]) was 1 and the “Effects Blackgrass” value (blackgrass [21]) was 1. For the same compound, the “Effects Livid amaranth” value (livid amaranth [22]) was 5, the “Effects Green foxtail” value (green foxtail [23]) was 5 and the “Effects Livid amaranth” value (livid amaranth [24]) was 5. The “Effects Common lambsquarters” value (common lambsquartes [25]) was 4, the “Effects Barnyardgrass” value (barnyardgrass [26]) was 2 and the “Effects Velvetleaf” value (velvetleaf [27]) was 3. For the same compound, the “Effects Large crabgrass” value (Large crabgrass [28]) was 5.
